Our source for the IC50 values is patent publication US12018021B2 (UCB Biopharma SRL, priority 2018, dated 2024).

Chain of IgE-Tb / FcεRIα-Y131A-AF488 (P01854 1-427 limits assumed, stated change not applied): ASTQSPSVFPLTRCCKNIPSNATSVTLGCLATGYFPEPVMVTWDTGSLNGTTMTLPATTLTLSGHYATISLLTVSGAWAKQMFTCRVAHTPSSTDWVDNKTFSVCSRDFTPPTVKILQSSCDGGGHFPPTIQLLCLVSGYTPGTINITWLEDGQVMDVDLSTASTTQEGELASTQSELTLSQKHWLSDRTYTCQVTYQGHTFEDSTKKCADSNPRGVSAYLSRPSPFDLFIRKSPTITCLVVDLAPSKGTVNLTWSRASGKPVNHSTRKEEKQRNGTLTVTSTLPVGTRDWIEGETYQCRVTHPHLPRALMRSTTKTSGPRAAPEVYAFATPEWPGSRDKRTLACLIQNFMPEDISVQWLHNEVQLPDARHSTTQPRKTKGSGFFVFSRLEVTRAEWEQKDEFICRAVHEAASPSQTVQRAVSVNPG
Chain of IgE-Tb / sFcεRIα-Y131A-AF488 (P01854 whole entry N146Q/N252Q): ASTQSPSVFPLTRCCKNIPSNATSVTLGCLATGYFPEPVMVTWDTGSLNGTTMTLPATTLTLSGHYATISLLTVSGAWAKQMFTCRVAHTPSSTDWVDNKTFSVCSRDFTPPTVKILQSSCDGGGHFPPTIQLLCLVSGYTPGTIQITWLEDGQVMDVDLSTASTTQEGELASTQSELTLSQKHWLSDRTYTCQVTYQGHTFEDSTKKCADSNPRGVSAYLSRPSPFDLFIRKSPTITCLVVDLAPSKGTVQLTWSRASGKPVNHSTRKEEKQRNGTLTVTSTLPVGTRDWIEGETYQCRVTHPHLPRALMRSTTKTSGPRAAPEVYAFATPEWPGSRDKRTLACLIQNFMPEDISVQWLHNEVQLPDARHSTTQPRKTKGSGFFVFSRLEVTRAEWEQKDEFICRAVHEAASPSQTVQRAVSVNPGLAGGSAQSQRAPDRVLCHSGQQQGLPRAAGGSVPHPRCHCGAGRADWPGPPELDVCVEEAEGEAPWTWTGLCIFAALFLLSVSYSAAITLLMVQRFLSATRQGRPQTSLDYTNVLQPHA

One assay addresses IgE-Tb / FcεRIα-Y131A-AF488 (Homo sapiens, UniProt P01854). Description: IgE-Tb / FcεRIα-Y131A-AF488 FRET assay (protocol for examples 1 to 233). The assay is classed as binding. The following applies: examples 1 to 233: 5 nM IgE-Tb, 25 nM FcεRIα-Y131A-AF488, incubated 2 hours at room temperature; read-out: Y131A FRET IC50 range. On the procedure: For examples 1 to 233, the assay was conducted according to the following: Each assay reaction was conducted in a volume of 25 μl in a 384-well half-volume plate. 10 point compound serial dilutions (3-fold) were generated in DMSO at a concentration of ×50 that of the final assay concentration (FAC). Compound solutions were then prepared by IgE-Tb diluting 10-fold in assay buffer. For the assay, 5 μl of diluted compound was added to 10 μl of, followed by addition of 10 μl FcεRIα-Y131A-AF488. FRET reagents FACs were 5 nM IgE-Tb, 25 nM FcεRIα-Y131A-AF488. Usually the top FAC of compound in the assay was 10 μM. The final DMSO concentration was 2%. The minimum signal (MIN) was measured by adding 5l unlabelled FcεRIα at 1 μM (FAC=200 nM) to the FRET reagents. The maximum FRET signal (MAX) was measured in wells containing FRET reagents but no compound. The assay was incubated for 2 hours at room temperature, protected from light and evaporation, and with gentle agitation.
Measurement of FRET for each well was carried out by exciting at 330 nm and measuring emission at 495/520 nm using an Envision plate reader (Perkin Elmer). FRET ratio was calculated as follows: Emission at 520/Emission at 495×1000.
The FRET ratio was used for the data analysis.
Z′ was calculated as follows (σ=standard deviation and μ=mean): 1−((3×σMAX)+(3×σMIN))/(μMAX−μMIN)
Z′ above 0.5 was considered a good assay.
Background signal (MIN) was subtracted from all wells. Using the background subtracted values, the percent inhibition by compound in each test-well was calculated as follows: 100−Test-well FRET ratio/MAX FRET ratio×100.
Percent inhibition was plotted against compound concentration. IC50 values for each compound were determined using four parameter logistic fit model using the XLFIT5 software package.
For the compound `CNC(=O)c1c(NC(=O)C2CC2C)sc2c1CCCC2` (mixture of isomers) [Example 102, N-Methyl-2-[(2-methylcyclopropanecarbonyl)amino]-4,5,6,7-tetrahydrobenzothiophene-3-carboxamide], the half-maximal inhibitory concentration (IC50) lay within 10000 to 50000 nM.
On the same count and under the same terms, with `C[S+]([O-])NC1CCc2sc(NC(=O)C3CC3)c(C(=O)NCC3CC3)c2C1` (mixture of isomers) [Example 199, 2-(Cyclopropanecarbonylamino)-N-(cyclopropylmethyl)-5-(methanesulfinamido)-4,5,6,7-tetrahydrobenzothiophene-3-carboxamide] the figure was 1000 to 10000 nM.
Same read-out and setting: for `C[C@@H]1CCc2sc(NC(=O)C3CC3)c(C(=O)NCC3CC3)c21` (single isomer, unassigned) [Example 13] the value was 1000 to 10000 nM; for `C[C@H]1CCc2sc(NC(=O)C3CC3)c(C(=O)NCC3CC3)c21` (single isomer, unassigned) [Example 14], 10000 to 50000 nM.
On the same count and under the same terms, with `CC1CC1C(=O)Nc1sc2c(c1C(=O)NCC1CC1)CCCC2` (single isomer, unassigned) [Example 90, N-(cyclopropylmethyl)-2-[(2-methylcyclopropanecarbonyl)amino]-4,5,6,7-tetrahydrobenzothiophene-3-carboxamide] the figure was 1000 to 10000 nM; with `O=C(Nc1sc2c(c1C(=O)N1CCC3(CC3)C1)CC(n1cnnc1Nc1cccnc1)CC2)C1CC1` (single isomer, unassigned) [Example 128], less than 1000 nM; with `O=C(Nc1sc2c(c1C(=O)N1CCC3(CC3)C1)CC(n1cnnc1Nc1cccnc1)CC2)C1CC1` (single isomer, unassigned) [Example 129], 1000 to 10000 nM.
`CCc1c(N[C@@H]2CCc3sc(NC(=O)C4CC4)c(C(=O)NCC4CC4)c3C2)c(=O)c1=O` (single isomer, unassigned) [Example 189]: the IC50 was less than 1000 nM.
Same read-out and setting: with `CCc1c(N[C@H]2CCc3sc(NC(=O)C4CC4)c(C(=O)NCC4CC4)c3C2)c(=O)c1=O` (single isomer, unassigned) [Example 190] the figure was less than 1000 nM; with `CC(C)(C)CNc1nncn1C1CCc2sc(NC(=O)C3CC3)c(C(=O)NCC3CC3)c2C1` (stereo in doubt) [Example 105, (5S)-2-(Cyclopropanecarbonylamino)-N-(cyclopropylmethyl)-5-[3-(2,2-dimethylpropylamino)-1,2,4-triazol-4-yl]-4,5,6,7-tetrahydrobenzothiophene-3-carboxamide], less than 1000 nM.
The same measure, in the same setting: with `CC(C)CNc1nncn1C1CCc2sc(NC(=O)C3CC3)c(C(=O)NCC3CC3)c2C1` (stereo in doubt) [Example 111, (5S)-2-(Cyclopropanecarbonylamino)-N-(cyclopropylmethyl)-5-[3-(isobutylamino)-1,2,4-triazol-4-yl]-4,5,6,7-tetrahydrobenzothiophene-3-carboxamide] the figure was less than 1000 nM; with `Cc1cncc(Nc2nncn2C2CCc3sc(NC(=O)C4CC4)c(C(=O)NCC4CC4)c3C2)c1` (stereo in doubt) [Example 114, (5S)-2-(cyclopropanecarbonylamino)-N-(cyclopropylmethyl)-5-[3-[(5-methyl-3-pyridyl)amino]-1,2,4-triazol-4-yl]-4,5,6,7-tetrahydrobenzothiophene-3-carboxamide], less than 1000 nM.
`O=C(NCC1CC1)c1c(NC(=O)C2CC2)sc2c1CC(n1cnnc1NCCN1CCOCC1)CC2` (stereo in doubt) [Example 118, (5S)-2-(Cyclopropanecarbonylamino)-N-(cyclopropylmethyl)-5-[3-(2-morpholinoethylamino)-1,2,4-triazol-4-yl]-4,5,6,7-tetrahydrobenzothiophene-3-carboxamide]: the IC50 was less than 1000 nM.

Another assay deals with IgE-Tb / sFcεRIα-Y131A-AF488 (Homo sapiens, UniProt P01854, N146Q/N252Q). The assay is described as follows: IgE-Tb / sFcεRIα-Y131A-AF488 FRET assay (protocol for examples 234 to 501). The assay is classed as binding. The following applies: examples 234 to 501: compound with IgE-Tb 30 minutes before sFcεRIα-Y131A-AF488, incubated 18 hours at room temperature; read-out: Y131A FRET IC50 range. The method, boiled down:
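Read-out is the 520/490 nm emission ratio (337 nm excitation) after 18 h at room temperature, background subtracted, fitted four-parameter for IC50. Final reagents: 5 nM IgE-Tb, preincubated 30 min with compound (top typically 10 μM, 2% DMSO, 3-fold 10-point), plus 25 nM sFcεRIα-Y131A-AF488.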
For `Cc1cc(Nc2nncn2[C@H]2CCc3sc(NC(=O)C4CC45CC5)c(C(=O)NCC4CC4)c3C2)n(C)n1` (stereo partly drawn) [Example 499, (5S)—N-(cyclopropylmethyl)-5-[3-[(2,5-dimethylpyrazol-3-yl)amino]-1,2,4-triazol-4-yl]-2-(spiro[2.2]pentane-2-carbonylamino)-4,5,6,7-tetrahydrobenzothiophene-3-carboxamide], the IC50 is less than 1000 nM.

As usually defined, the IC50 is the concentration that inhibits the measured activity by half.
